The results in this text go back to patent US20250136555A1 (HARBIN MEDISAN PHARMACEUTICAL CO., LTD., priority 2022, published 2025).

In data set [1] the target is T1, PPARα (Homo sapiens, UniProt Q07869).
T1 construct: expressed in transfected cells; host or cells: COS-7
T1 sequence (Q07869 239-466 limits assumed): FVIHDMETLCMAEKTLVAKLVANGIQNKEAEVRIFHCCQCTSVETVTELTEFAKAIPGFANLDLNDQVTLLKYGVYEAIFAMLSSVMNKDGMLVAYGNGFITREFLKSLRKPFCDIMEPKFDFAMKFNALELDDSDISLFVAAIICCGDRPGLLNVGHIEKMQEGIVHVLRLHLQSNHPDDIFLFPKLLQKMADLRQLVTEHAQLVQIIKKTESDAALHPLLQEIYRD
Description: GAL4 hybrid reporter gene method, PPARα agonistic activity. The format is cell-based. The settings on record: Cos-7 cells, Gal4-PPARα (LBD); GW7647 10 nM = 100%; 16 h.

The nature of data set [2]: Metabolic stability in human liver microsomes. The format is in vitro ADME. On the procedure:
A solution of the compound in acetonitrile at a concentration of 500 μM was prepared and diluted in 0.1 M potassium phosphate solution to obtain a 1.5 μM drug working solution. The drug working solution was co-incubated with a human liver microsome working solution at a final concentration of 0.75 mg/mL and a NADPH solution (at a final concentration of 550 μM), and the incubation was terminated by adding an acetonitrile solution at 0 min, 15 min, 30 min, 45 min, and 60 min, respectively. The remaining amount of the compound remained in the system at each time point was detected by using LC/MS, the absolute value k of the slope was measured by plotting the natural logarithm of the percentage of the remaining amount of the compound over time, and the calculation was performed according to the formula: T1/2 (half-life)=ln2/k=0.693/k.

The nature of data set [3]: Pharmacokinetic evaluation in rats. The format is in vivo, SD rats. Particulars: for AUC(0-inf): read-out: Area under the curve AUC(0-∞); for Tmax: read-out: Peak time Tmax. On the procedure:
Animals: 6 SPF-grade male SD rats were purchased from Beijing Vital River Laboratory Animal Technology Co., Ltd.
Grouping: rats were divided into 2 groups, with 3 rats in each group; one group was an oral administration group, and the other group was an intravenous injection group. The dose in the oral administration group was 10 mpk, and the dose in the intravenous injection group was 2 mpk.
Experimental procedures: after rats in the intravenous injection group were administered by tail vein injection, about 0.25 mL of blood was collected from the orbit at 0.083 h, 0.25 h, 0.5 h, 1 h, 2 h, 4 h, 6 h, 8 h, and 24 h, respectively, and then heparin sodium was rapidly added for anticoagulation after blood collection. The blood was placed on ice after collection. Rats in the oral administration group were fasted for 12 h before administration and fed 4 h after administration. After the rats were administered orally, about 0.25 mL of blood was collected from the orbit at 0.083 h, 0.25 h, 0.5 h, 1 h, 2 h, 4 h, 6 h, 8 h, and 24 h, respectively, and then heparin sodium was rapidly added for anticoagulation after blood collection. The blood was placed on ice after collection. All samples were centrifuged at 6000 r/min for 3 min in a low-temperature centrifuge, and plasma was obtained after separation. The content of the compound in the plasma was detected via LC-MS/MS-18, and relevant pharmacokinetic parameters were calculated according to the plasma concentration data of different time points.

In data set [4] the test system is non-PPAR nuclear receptors. Description: GAL4 hybrid reporter gene method, non-PPAR nuclear receptors (summary statement). Particulars: 1 μM. Type of data set: cell-based. On the procedure:
Reporter gene plasmids for different nuclear receptors were constructed by referring to the method in the literature (Journal of Medicinal Chemistry 2022, 65, 2571-2592). Transfection working solutions for different nuclear receptors were prepared and added into COS-7 cells. The preparation method for the transfection working solution was as follows: the constructed pBIND-Gal4-PPARα (LBD) (or pBIND-Gal4-PPARδ (LBD) plasmid or pBIND-Gal4-PPARγ (LBD) plasmid or pBIND-Gal4-RARα (LBD) plasmid or pBIND-Gal4-RARγ (LBD) plasmid or pBIND-Gal4-RARβ (LBD) plasmid or pBIND-Gal4-RORα (LBD) plasmid or pBIND-Gal4-RORγ (LBD) plasmid or pBIND-Gal4-RORβ (LBD) plasmid or pBIND-Gal4-FXR (LBD) plasmid or pBIND-Gal4-RXRα. (LBD) plasmid or pBIND-Gal4-RXRγ (LBD) plasmid or pBIND-Gal4-RXRβ (LBD) plasmid or pBIND-Gal4-VDR (LBD) plasmid or pBIND-Gal4-LXRα (LBD) plasmid or pBIND-Gal4-LXRβ (LBD) plasmid or pBIND-Gal4-[…] (LBD) plasmid or pBIND-Gal4-PXR (LBD) plasmid or pBIND-Gal4-CAR (LBD) plasmid), 15 μg of pGL4.35-9×Gal4 UAS plasmid (purchased from Promega (Beijing) Biotech Co., Ltd.), and 60 μL of a transfection reagent ([…], purchased from Wuhan ABclonal Biotechnology Co., Ltd.) were added to 2 mL of Opti-MEM, the mixture was left to stand at room temperature for 15 min, and then the working solution was obtained.

Where [5] appears, read: human liver microsomes 0.75 mg/mL, NADPH.
The mark [6] stands for this setting: male, SD, rat, plasma, 2 mg/kg, intravenous injection, 2 mpk.
Where [7] appears, read: male, SD, rat, plasma, 10 mg/kg, oral administration, 10 mpk.

“Also recorded” adds a separate entry of the source. Where two headings read alike, the source gives them in different places. Some results are limits rather than exact numbers.

`Cc1cc(CN2C(=O)CN(c3ccc(C(F)(F)F)cc3)C2=O)cc(C)c1OC(C)(C)C(=O)O` [Compound 1, 2-(4-((2,5-Dioxo-3-(4-(trifluoromethyl)phenyl)imidazolidin-1-yl)methyl)-2,6-dimethylphenoxy)-2-methylpropionic Acid]: in data set [1], the concentration for a half-maximal effect (EC50) was 700 pM and the “PPARα EC50 (nM)” value is “picomolar levels; also recorded: low nanomolar levels”. Besides, in data set [2] (human liver microsomes), the “metabolic stability in human liver microsomes” value is “very good metabolic stability”. Moreover, in data set [2] (setting [5]), the CLint scaled was 6.2 mL/min/kg and the half-life is greater than 2 h. Also, in data set [3] (in vivo), the “pharmacokinetic properties” value is on record as “good pharmacokinetic properties”. In data set [3] (intravenous injection, 2 mpk), the “Half-life T1/2” value was determined as 4.82 ± 1.05 h and the “Peak concentration Cmax” value stood at 4306.67 ± 1546.13 ng/mL. Moreover, in data set [3] (setting [6]), the AUC(0-inf) came out at 4250 ± 1240 ng·h/mL and the Tmax came to 0.08 h. Moreover, in data set [3] (setting [7]), the AUC(0-inf) worked out at 22300 ± 3550 ng·h/mL and the Tmax is 2.25 ± 3.25 h. Moreover, the bioavailability in data set [3] (male, SD, rat, plasma, 10 mg/kg, oral administration, 10 mpk, read-out: Bioavailability F (%)) was 104.7 ± 0.17%. Further, in data set [3] (oral administration, 10 mpk), the “Half-life T1/2” value stood at 6.72 ± 1.39 h and the “Peak concentration Cmax” value turned out to be 2816.67 ± 1020.41 ng/mL. For the same compound, the “agonistic effect on non-PPAR nuclear receptors” value in data set [4] is given as “no significant agonistic effect”.
